Experiments:
Type in all cases: in vivo
Amaranthus retroflexus = assay: Post-emergence foliage spray, pot culture, fresh weight inhibition (Tables 151-206; 20 days)
Experimental: (§1) The above weeds were cultivated by a pot culture method. […] Full and uniform weed seeds were selected, soaked in warm water at 25° C. for 6 hours, and germinated in a 28° C. biochemical incubator (darkness). The weed seeds that had just germinatedwere evenly placed on the surface of the soil and then covered with 0.5-1 cm soil according to the sizes of seeds.
(§2) The technical materials were all dissolved in acetone, and diluted with an aqueous solution containing 0.1% emulsifier Tween-80. The dilution is performed as required.
(§3) A ratio of the active ingredient A to the active ingredient B and amounts thereof in each group depends on the characteristics and toxicity of the two agents, as well as the main application purpose of a corresponding formulation. Based on the pre-tests in this study, the dosage of the active ingredient A and B applied alone and in combination were shown in the tables. Water containing the solvent and emulsifier same with the above groups but free of the agents was used as a blank control.
(§4) In the stage of weeds with 3˜4 leaves, the weeds were thinned out to maintain 15 weeds per pot and 45 weeds for each treatment, then continued to be cultured to 4˜5 leaves stage of grassy weeds, 5˜6 leaves stage of broadleaf weeds, and treated.
(§5) The well-cultured weeds were evenly placed on a platform with an area of 0.5 m^2, and a solution of agents was sprayed on the stems and leaves thereof by the 3WP-2000-type walking spray tower at a dosage of 450 kg/ha and at a spray pressure of 0.3 MPa. After all the solution was sprayed, the valve was closed. After 30 seconds, the door of the spray tower was opened, and the nutritional bowl was taken out. Then the valve was opened, and the spray tube was cleaned by spraying 50 ml of water.
(§6) A pot-culture method was employed. For the cultivation of weeds, please refer to the Section 1.1), and “Pesticide guidelines for laboratory bioactivity tests—herbicides”. As to a method for applying agents, please refer to the section 2.3.2), that is, a foliage treatment was employed. After the treatment, the weeds were routinely cultured in a greenhouse.
(§7) A method for investigating absolute number was employed, wherein whole seedlings of survival weeds were cut off with a blade along the soil surface, and the fresh weight of the weeds was weighed with an analytical balance. For dead weeds, the fresh weight thereof was zero.
(§8) Wherein, in the formula, X represented the fresh weight inhibition rate of the active ingredient A in a dosage of P, and Y represented the fresh weight inhibition rate of the active ingredient B in a dosage of Q.

Capsella bursa-pastoris = assay: as above
Experimental: as §1, §2, §3, §4, §5, §6, §7, §8

Alopecurus japonicus = assay: as above
Experimental: (§9) Table 151-206: Digitaria sanguinalis, Amaranthus retroflexus, Conyza Canadensis, Capsella bursa-pastoris, Eleusine indica were collected in Huangdao of Shandong Province, Sinapis arvensis were collected in Sixian of Anhui Province, Alopecurus japonicus were collected in Tianchang of Anhui Province, Veronica didyma were collected in Siyang of Jiangsu Province.
as §1
(§10) The culture was carried out in a controllable sunlight greenhouse at 20 to 30° C., in natural light, and relative humidity of 57% to 72%.
as §2, §3
(§11) Table 1-48, 51-98, 101-148, 151-206: […] per treatment, that is, a total of 60 weeds were treated in one treatment.
as §4, with “Table 151-206: The agents were used for only once in the experiment. In” for “In”
as §5, §6, §7
(§12) Table 151-206: The investigation was performed after 20 days of the treatment for only once.
(§13) Theoretical fresh weight inhibition rate of a combination of two active ingredients in each group was calculated by the Gowing method (E0=X+Y−X*Y/100), and then compared with an actually measured inhibition rate (E), thereby effect of the combination (hereafter referred to as combined effect) on weeds was evaluated: the value of E-E0, which was greater than 10%, corresponded to a synergistic effect, the value of E-E0, which was less than −10%, corresponded to an antagonistic effect, and the value of E-E0, which was from −10% to 10%, corresponded to an additional effect.

Digitaria sanguinalis = assay: as above
Experimental: as §9, §1, §10, §2, §3, §11
as §4, with “Table 151-206: The agents were used for only once in the experiment. In” for “In”
as §5, §6, §7, §12, §13

Eleusine indica [1] = assay: as above
Experimental: as §9, §1, §10, §2, §3, §11
as §4, with “Table 151-206: The agents were used for only once in the experiment. In” for “In”
as §5, §6, §7, §12, §13

Sinapis arvensis = assay: as above
Experimental: as §9, §1, §10, §2, §3, §11
as §4, with “Table 151-206: The agents were used for only once in the experiment. In” for “In”
as §5, §6, §7, §12, §13

Chloris virgata = assay: Post-emergence foliage spray, pot culture, fresh weight inhibition (Tables 1-48, 51-98, 101-148; 24 days)
Text: (§14) Table 1-48, 51-98, 101-148: Echinochloa crusgalli var. zelayensis, Eclipta prostrate, Galium aparine L., Alopecurus aequalis, Alopecurus japonicus, Lindernia procumbens, Veronica persica^1, Malachium aquaticum, Beckmannia syzigachne, Stellaria media were collected in Huai'an of Jiangsu Province; Commelina communis, Sonchus arvensis, Setaria glauca, Chloris virgata, Setaria faberi, Sonchus oleraceus L., Echinochloa oryzoides, Cirsium setosum, Xanthium strumarium were collected in Qiqiha'er of Heilongjiang Province; Sinapis arvensis, Veronica persica^2 were collected in Zhumadian of Henan Province; Ludwigia prostrate, Ammannia arenaria were collected in Zhuji of Zhejiang Province; Amaranthus retrojlexus, Descurainia sophia, Digitaria sanguinalis, Setaria viridis, Conyza Canadensis, Capsella bursa-pastoris, Eleusine indica, Ipomoea purpurea, Abutilon theophrasti, Chenopodium album, Acalypha australis, Solanum nigrum were collected in Qingdao of Shandong Province; Echinochloa caudate were collected in Pingluo of Ningxia Province.
as §1, §10, §2, §3, §11
as §4, with “Table 1-48, 51-98, 101-148: The agents were used for only once in the experiment. In” for “In”, “5˜6” for “4˜5”, “6˜7” for “5˜6”
as §5, §6, §7
(§15) Table 1-48, 51-98, 101-148, 207-216: The investigation was performed after 24 days of the treatment for only once.

Eleusine indica [2] = assay: as above
Text: as §14, §1, §10, §2, §3, §11
as §4, with “Table 1-48, 51-98, 101-148: The agents were used for only once in the experiment. In” for “In”, “5˜6” for “4˜5”, “6˜7” for “5˜6”
as §5, §6, §7, §15

[3] = B alone 75 g a.i./ha, 20 days after treatment
[4] = B alone 150 g a.i./ha, 20 days after treatment
[5] = B alone 300 g a.i./ha, 20 days after treatment
[6] = B alone 600 g a.i./ha, 20 days after treatment

## CP(=O)(O)CCC(N)C(=O)O (stereo not shown) [glufosinate ammonium]
Amaranthus retroflexus; B 75 g a.i./ha, 20 days
  Control effect (%) of B applied alone in corresponding dose: 10.2%
Amaranthus retroflexus; B 150 g a.i./ha, 20 days
  Control effect (%) of B applied alone in corresponding dose: 19.6%
Amaranthus retroflexus; B 300 g a.i./ha, 20 days
  Control effect (%) of B applied alone in corresponding dose: 28.6%
Amaranthus retroflexus; B 600 g a.i./ha, 20 days
  Control effect (%) of B applied alone in corresponding dose: 54.1%
Amaranthus retroflexus; [3]
  Control effect (%) of B applied alone in corresponding dose: 10.2%
Amaranthus retroflexus; [4]
  Control effect (%) of B applied alone in corresponding dose: 19.6%
Amaranthus retroflexus; [5]
  Control effect (%) of B applied alone in corresponding dose: 28.6%
Amaranthus retroflexus; [6]
  Control effect (%) of B applied alone in corresponding dose: 54.1%
Capsella bursa-pastoris; B 75 g a.i./ha, 20 days
  Control effect (%) of B applied alone in corresponding dose: 2.1%
Capsella bursa-pastoris; B 150 g a.i./ha, 20 days
  Control effect (%) of B applied alone in corresponding dose: 8.7%
Capsella bursa-pastoris; B 300 g a.i./ha, 20 days
  Control effect (%) of B applied alone in corresponding dose: 15.3%
Capsella bursa-pastoris; B 600 g a.i./ha, 20 days
  Control effect (%) of B applied alone in corresponding dose: 34.5%
Capsella bursa-pastoris; [3]
  Control effect (%) of B applied alone in corresponding dose: 2.1%
Capsella bursa-pastoris; [4]
  Control effect (%) of B applied alone in corresponding dose: 8.7%
Capsella bursa-pastoris; [5]
  Control effect (%) of B applied alone in corresponding dose: 15.3%
Capsella bursa-pastoris; [6]
  Control effect (%) of B applied alone in corresponding dose: 34.5%

## O=C(O)CNCP(=O)(O)O [glyphosate]
Alopecurus japonicus; B 75 g a.i./ha, 20 days
  Control effect (%) of B applied alone in corresponding dose: 7.6%
Alopecurus japonicus; B 150 g a.i./ha, 20 days
  Control effect (%) of B applied alone in corresponding dose: 19.5%
Alopecurus japonicus; B 300 g a.i./ha, 20 days
  Control effect (%) of B applied alone in corresponding dose: 30.8%
Alopecurus japonicus; B 600 g a.i./ha, 20 days
  Control effect (%) of B applied alone in corresponding dose: 66.9%
Alopecurus japonicus; [3]
  Control effect (%) of B applied alone in corresponding dose: 7.6%
Alopecurus japonicus; [4]
  Control effect (%) of B applied alone in corresponding dose: 19.5%
Alopecurus japonicus; [5]
  Control effect (%) of B applied alone in corresponding dose: 30.8%
Alopecurus japonicus; [6]
  Control effect (%) of B applied alone in corresponding dose: 66.9%
Digitaria sanguinalis; B 75 g a.i./ha, 20 days
  Control effect (%) of B applied alone in corresponding dose: 12.3%
Digitaria sanguinalis; B 150 g a.i./ha, 20 days
  Control effect (%) of B applied alone in corresponding dose: 24.6%
Digitaria sanguinalis; B 300 g a.i./ha, 20 days
  Control effect (%) of B applied alone in corresponding dose: 43.5%
Digitaria sanguinalis; B 600 g a.i./ha, 20 days
  Control effect (%) of B applied alone in corresponding dose: 76.4%
Digitaria sanguinalis; [3]
  Control effect (%) of B applied alone in corresponding dose: 12.3%
Digitaria sanguinalis; [4]
  Control effect (%) of B applied alone in corresponding dose: 24.6%
Digitaria sanguinalis; [5]
  Control effect (%) of B applied alone in corresponding dose: 43.5%
Digitaria sanguinalis; [6]
  Control effect (%) of B applied alone in corresponding dose: 76.4%
Eleusine indica [1]; B 75 g a.i./ha, 20 days
  Control effect (%) of B applied alone in corresponding dose: 6.9%
Eleusine indica [1]; B 150 g a.i./ha, 20 days
  Control effect (%) of B applied alone in corresponding dose: 13.6%
Eleusine indica [1]; B 300 g a.i./ha, 20 days
  Control effect (%) of B applied alone in corresponding dose: 21.3%
Eleusine indica [1]; B 600 g a.i./ha, 20 days
  Control effect (%) of B applied alone in corresponding dose: 68.9%
Eleusine indica [1]; [3]
  Control effect (%) of B applied alone in corresponding dose: 6.9%
Eleusine indica [1]; [4]
  Control effect (%) of B applied alone in corresponding dose: 13.6%
Eleusine indica [1]; [5]
  Control effect (%) of B applied alone in corresponding dose: 21.3%
Eleusine indica [1]; [6]
  Control effect (%) of B applied alone in corresponding dose: 68.9%
Sinapis arvensis; B 75 g a.i./ha, 20 days
  Control effect (%) of B applied alone in corresponding dose: 2.5%
Sinapis arvensis; B 150 g a.i./ha, 20 days
  Control effect (%) of B applied alone in corresponding dose: 9.4%
Sinapis arvensis; B 300 g a.i./ha, 20 days
  Control effect (%) of B applied alone in corresponding dose: 19.8%
Sinapis arvensis; B 600 g a.i./ha, 20 days
  Control effect (%) of B applied alone in corresponding dose: 37.2%
Sinapis arvensis; [3]
  Control effect (%) of B applied alone in corresponding dose: 2.5%
Sinapis arvensis; [4]
  Control effect (%) of B applied alone in corresponding dose: 9.4%
Sinapis arvensis; [5]
  Control effect (%) of B applied alone in corresponding dose: 19.8%
Sinapis arvensis; [6]
  Control effect (%) of B applied alone in corresponding dose: 37.2%

## CS(=O)(=O)c1ccc(C(=O)C2C(=O)CCCC2=O)c([N+](=O)[O-])c1 [mesotrione]
Chloris virgata; B 15 g a.i./ha
  Control effect (%) of B applied alone in corresponding dose: 6.5%
Chloris virgata; B 30 g a.i./ha
  Control effect (%) of B applied alone in corresponding dose: 13.4%
Chloris virgata; B 60 g a.i./ha
  Control effect (%) of B applied alone in corresponding dose: 38.3%
Chloris virgata; B 120 g a.i./ha
  Control effect (%) of B applied alone in corresponding dose: 75.2%
Eleusine indica [2]; Table 82, 15 g a.i./ha
  Control effect (%) of B applied alone in corresponding dose: 4.0%
Eleusine indica [2]; Table 82, 30 g a.i./ha
  Control effect (%) of B applied alone in corresponding dose: 10.9%
Eleusine indica [2]; Table 82, 60 g a.i./ha
  Control effect (%) of B applied alone in corresponding dose: 36.9%
Eleusine indica [2]; Table 82, 120 g a.i./ha
  Control effect (%) of B applied alone in corresponding dose: 75.0%

## CS(=O)(=O)c1ccc(C(=O)C2C(=O)CCCC2=O)c(Cl)c1COCC(F)(F)F [tembotrione]
Chloris virgata; B 3.75 g a.i./ha
  Control effect (%) of B applied alone in corresponding dose: 4.0%
Chloris virgata; B 7.5 g a.i./ha
  Control effect (%) of B applied alone in corresponding dose: 12.3%
Chloris virgata; B 15 g a.i./ha
  Control effect (%) of B applied alone in corresponding dose: 41.0%
Chloris virgata; B 30 g a.i./ha
  Control effect (%) of B applied alone in corresponding dose: 73.4%
Eleusine indica [2]; Table 83, 3.75 g a.i./ha
  Control effect (%) of B applied alone in corresponding dose: 5.4%
Eleusine indica [2]; Table 83, 7.5 g a.i./ha
  Control effect (%) of B applied alone in corresponding dose: 12.3%
Eleusine indica [2]; Table 83, 15 g a.i./ha
  Control effect (%) of B applied alone in corresponding dose: 39.7%
Eleusine indica [2]; Table 83, 30 g a.i./ha
  Control effect (%) of B applied alone in corresponding dose: 73.1%
